Earlier results in patent US20110293690A1, “Biodegradable Polymer Encapsulated Microsphere Particulate Film and Method of Making Thereof” (Tyco Healthcare Group LP, priority 2010, published 2011).
Structures can show the parent of a compound that is named as a salt. Where two headings read alike, the source gives them in different places.

Key:
[1] = in water, stated in words

In the case of `CCCCN1CCCCC1C(=O)Nc1c(C)cccc1C` (stereo not drawn) [Bupivacaine, bupivacaine], the pKa is given as “about 8.1” and the aqueous solubility ([1]; listed as free base form of bupivacaine) is given as “lower aqueous solubility”.

For `CCCCN1CCCCC1C(=O)Nc1c(C)cccc1C` (stereo not drawn) [salt form of bupivacaine, bupivacaine hydrochloride], the aqueous solubility ([1]; hydrochloride) is listed as “soluble in water”.
